PubChem BioAssay (NCI)
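Five compound concentrations were applied to cells in 96-well plates for 48 hours; endpoints were derived by simple linear interpolation of the resulting dose-response curve. GI50: concentration for 50% inhibition of growth. Definition used: TGI = concentration required for complete inhibition of growth.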

How the values were obtained:
Experiment in all cases: growth of human tumour cells (NCI), 48 h
T-47D breast = tested on: T-47D breast
K-562 leukemia = tested on: K-562 leukemia
HOP-92 NSCLC = tested on: HOP-92 NSCLC
TK-10 renal = tested on: TK-10 renal
UACC-62 melanoma = tested on: UACC-62 melanoma
UO-31 renal = tested on: UO-31 renal
ACHN renal = tested on: ACHN renal
NCI-H226 lung = tested on: NCI-H226 lung
COLO 205 colon = tested on: COLO 205 colon
BT-549 breast = tested on: BT-549 breast
HOP-62 NSCLC = tested on: HOP-62 NSCLC
KM12 colon = tested on: KM12 colon
NCI-H522 lung = tested on: NCI-H522 lung
NCI-H23 lung = tested on: NCI-H23 lung
A498 renal = tested on: A498 renal
SK-MEL-5 melanoma = tested on: SK-MEL-5 melanoma
SK-MEL-28 melanoma = tested on: SK-MEL-28 melanoma
SNB-75 CNS = tested on: SNB-75 CNS
NCI/ADR-RES ovarian = tested on: NCI/ADR-RES ovarian
SR leukemia = tested on: SR leukemia
OVCAR-8 ovarian = tested on: OVCAR-8 ovarian
RPMI-8226 leukemia = tested on: RPMI-8226 leukemia
NCI-H460 lung = tested on: NCI-H460 lung
HCT-15 colon = tested on: HCT-15 colon
DU-145 prostate = tested on: DU-145 prostate
SF-268 CNS = tested on: SF-268 CNS
HS 578T breast = tested on: HS 578T breast
SN12C renal = tested on: SN12C renal
SK-OV-3 ovarian = tested on: SK-OV-3 ovarian
OVCAR-4 ovarian = tested on: OVCAR-4 ovarian
IGROV1 ovarian = tested on: IGROV1 ovarian
OVCAR-3 ovarian = tested on: OVCAR-3 ovarian
SK-MEL-2 melanoma = tested on: SK-MEL-2 melanoma
SF-295 CNS = tested on: SF-295 CNS
PC-3 prostate = tested on: PC-3 prostate
UACC-257 melanoma = tested on: UACC-257 melanoma
HCC-2998 colon = tested on: HCC-2998 colon
MALME-3M melanoma = tested on: MALME-3M melanoma
LOX IMVI melanoma = tested on: LOX IMVI melanoma
CAKI-1 renal = tested on: CAKI-1 renal
MDA-MB-231 breast = tested on: MDA-MB-231 breast
EKVX NSCLC = tested on: EKVX NSCLC
MDA-MB-435 = tested on: MDA-MB-435
HL-60(TB) leukemia = tested on: HL-60(TB) leukemia
SF-539 CNS = tested on: SF-539 CNS
CCRF-CEM leukemia = tested on: CCRF-CEM leukemia
HCT-116 colon = tested on: HCT-116 colon
OVCAR-5 ovarian = tested on: OVCAR-5 ovarian
SW-620 colon = tested on: SW-620 colon
MOLT-4 leukemia = tested on: MOLT-4 leukemia
U251 CNS = tested on: U251 CNS
MCF7 breast = tested on: MCF7 breast
HT29 colon = tested on: HT29 colon
RXF 393 renal = tested on: RXF 393 renal
M14 melanoma = tested on: M14 melanoma
786-0 renal = tested on: 786-0 renal
A549 NSCLC = tested on: A549 NSCLC
SNB-19 CNS = tested on: SNB-19 CNS
MDA-N = tested on: MDA-N

CCC(c1ccccc1)c1noc(CCN(CC)CC)n1 (stereo unspecified)
GI50 (T-47D breast): 13.1 µM
TGI (T-47D breast): 76.2 µM
GI50 (K-562 leukemia): 25.8 µM
TGI (K-562 leukemia): > 100 µM
GI50 (HOP-92 NSCLC): 7.99 µM
TGI (HOP-92 NSCLC): 49.6 µM
GI50 (TK-10 renal): 42.8 µM
TGI (TK-10 renal): > 100 µM
GI50 (UACC-62 melanoma): 43.2 µM
TGI (UACC-62 melanoma): > 100 µM
GI50 (UO-31 renal): 32.2 µM
TGI (UO-31 renal): > 100 µM
GI50 (ACHN renal): 16.1 µM
TGI (ACHN renal): 31.3 µM
GI50 (NCI-H226 lung): 23.8 µM
TGI (NCI-H226 lung): 70.9 µM
GI50 (COLO 205 colon): 17.5 µM
TGI (COLO 205 colon): 34.5 µM
GI50 (BT-549 breast): 39.6 µM
TGI (BT-549 breast): > 100 µM
GI50 (HOP-62 NSCLC): 42.5 µM
TGI (HOP-62 NSCLC): > 100 µM
GI50 (KM12 colon): 22.8 µM
TGI (KM12 colon): > 56.1 µM
GI50 (NCI-H522 lung): 2.98 µM
TGI (NCI-H522 lung): 9.09 µM
GI50 (NCI-H23 lung): 63.3 µM
TGI (NCI-H23 lung): > 100 µM
GI50 (A498 renal): > 81.9 µM
TGI (A498 renal): > 100 µM
GI50 (SK-MEL-5 melanoma): 31.1 µM
TGI (SK-MEL-5 melanoma): > 100 µM
GI50 (SK-MEL-28 melanoma): 26.7 µM
TGI (SK-MEL-28 melanoma): > 73.2 µM
GI50 (SNB-75 CNS): 21.7 µM
TGI (SNB-75 CNS): > 100 µM
GI50 (NCI/ADR-RES ovarian): 39.1 µM
TGI (NCI/ADR-RES ovarian): > 100 µM
GI50 (SR leukemia): 37.5 µM
TGI (SR leukemia): > 100 µM
GI50 (OVCAR-8 ovarian): 32.5 µM
TGI (OVCAR-8 ovarian): > 100 µM
GI50 (RPMI-8226 leukemia): 13.2 µM
TGI (RPMI-8226 leukemia): > 100 µM
GI50 (NCI-H460 lung): > 52.3 µM
TGI (NCI-H460 lung): > 87.8 µM
GI50 (HCT-15 colon): 19.2 µM
TGI (HCT-15 colon): > 62.3 µM
GI50 (DU-145 prostate): 22.7 µM
TGI (DU-145 prostate): > 64.3 µM
GI50 (SF-268 CNS): 35.1 µM
TGI (SF-268 CNS): > 100 µM
GI50 (HS 578T breast): > 40.7 µM
TGI (HS 578T breast): > 72.8 µM
GI50 (SN12C renal): 27.1 µM
TGI (SN12C renal): > 94.8 µM
GI50 (SK-OV-3 ovarian): > 100 µM
TGI (SK-OV-3 ovarian): > 100 µM
GI50 (OVCAR-4 ovarian): 16.4 µM
TGI (OVCAR-4 ovarian): 40.7 µM
GI50 (IGROV1 ovarian): > 48.5 µM
TGI (IGROV1 ovarian): > 92.1 µM
GI50 (OVCAR-3 ovarian): 25.3 µM
TGI (OVCAR-3 ovarian): > 56.2 µM
GI50 (SK-MEL-2 melanoma): 24.7 µM
TGI (SK-MEL-2 melanoma): 67.7 µM
GI50 (SF-295 CNS): > 56.9 µM
TGI (SF-295 CNS): > 100 µM
GI50 (PC-3 prostate): 49.6 µM
TGI (PC-3 prostate): > 100 µM
GI50 (UACC-257 melanoma): > 51.2 µM
TGI (UACC-257 melanoma): > 100 µM
GI50 (HCC-2998 colon): 50.1 µM
TGI (HCC-2998 colon): > 100 µM
GI50 (MALME-3M melanoma): 30.2 µM
TGI (MALME-3M melanoma): > 100 µM
GI50 (LOX IMVI melanoma): 34.1 µM
TGI (LOX IMVI melanoma): > 60.3 µM
GI50 (CAKI-1 renal): 2.18 µM
TGI (CAKI-1 renal): 6.39 µM
GI50 (MDA-MB-231 breast): 26.4 µM
TGI (MDA-MB-231 breast): > 91.2 µM
GI50 (EKVX NSCLC): > 47 µM
TGI (EKVX NSCLC): > 91.3 µM
GI50 (MDA-MB-435): 23.8 µM
TGI (MDA-MB-435): > 78.8 µM
GI50 (HL-60(TB) leukemia): 18.1 µM
TGI (HL-60(TB) leukemia): 54.5 µM
GI50 (SF-539 CNS): 23.2 µM
TGI (SF-539 CNS): 71.1 µM
GI50 (CCRF-CEM leukemia): 28.5 µM
TGI (CCRF-CEM leukemia): > 86.3 µM
GI50 (HCT-116 colon): 18.5 µM
TGI (HCT-116 colon): 43.4 µM
GI50 (OVCAR-5 ovarian): 17.1 µM
TGI (OVCAR-5 ovarian): 35.6 µM
GI50 (SW-620 colon): 21 µM
TGI (SW-620 colon): > 68.1 µM
GI50 (MOLT-4 leukemia): 40.9 µM
TGI (MOLT-4 leukemia): > 100 µM
GI50 (U251 CNS): 29.5 µM
TGI (U251 CNS): > 100 µM
GI50 (MCF7 breast): 8.98 µM
TGI (MCF7 breast): 76.2 µM
GI50 (HT29 colon): 27.2 µM
TGI (HT29 colon): 81.3 µM
GI50 (RXF 393 renal): 14.8 µM
TGI (RXF 393 renal): 29 µM
GI50 (M14 melanoma): 28.8 µM
TGI (M14 melanoma): > 100 µM
GI50 (786-0 renal): 34.4 µM
TGI (786-0 renal): > 100 µM
GI50 (A549 NSCLC): 42.1 µM
TGI (A549 NSCLC): > 100 µM
GI50 (SNB-19 CNS): > 78.4 µM
TGI (SNB-19 CNS): > 100 µM

c1ccc(COC[C@H]2O[C@@H](c3ccccc3)C[C@@H](OCc3ccccc3)C2OCc2ccccc2)cc1 (stereo partly specified)
TGI (T-47D breast): > 10 µM
TGI (TK-10 renal): > 10 µM
TGI (UACC-62 melanoma): > 10 µM
TGI (COLO 205 colon): > 10 µM
TGI (HOP-62 NSCLC): > 10 µM
TGI (KM12 colon): > 10 µM
TGI (NCI-H23 lung): > 10 µM
TGI (SK-MEL-5 melanoma): > 10 µM
TGI (SK-MEL-28 melanoma): > 10 µM
TGI (SNB-75 CNS): > 10 µM
TGI (SR leukemia): > 10 µM
TGI (OVCAR-8 ovarian): > 10 µM
TGI (RPMI-8226 leukemia): > 10 µM
TGI (HCT-15 colon): > 10 µM
TGI (DU-145 prostate): > 10 µM
TGI (SF-268 CNS): > 10 µM
TGI (MDA-N): > 10 µM
TGI (SN12C renal): > 10 µM
TGI (SK-OV-3 ovarian): > 10 µM
TGI (IGROV1 ovarian): > 10 µM
TGI (SF-295 CNS): > 10 µM
TGI (PC-3 prostate): > 10 µM
TGI (HCC-2998 colon): > 10 µM
TGI (MALME-3M melanoma): > 10 µM
TGI (CAKI-1 renal): > 10 µM
TGI (MDA-MB-231 breast): > 10 µM
TGI (EKVX NSCLC): > 10 µM
TGI (CCRF-CEM leukemia): > 10 µM
TGI (SW-620 colon): > 10 µM
TGI (MOLT-4 leukemia): > 10 µM
TGI (MCF7 breast): > 10 µM
TGI (RXF 393 renal): > 10 µM
TGI (M14 melanoma): > 10 µM
TGI (786-0 renal): > 10 µM
TGI (A549 NSCLC): > 10 µM
